Key:
[1] = Partition coefficient (Log D), octanol/PBS; type: physicochemical; settings: octanol/PBS pH 7.4
Experimental: 10 mM stock solution (in DMSO) was prepared.
200 μM solution (in DMSO) was prepared from 10 mM stock solution.
A set of 5-10 dilutions (in MeOH) of each compound were prepared from 200 μM solution to give final test concentrations between 1 nm and 2 μM.
MS tuning was done for each compound to find the daughter peaks using 500 nm solution.
Calibration curve was made for each compound to evaluate the linearity of our method.
Octanol was first saturated with PBS and PBS was first saturated with octanol
20 μl of a 10 mM DMSO stock solution was added to 990 μl of PBS (pH 7.4) and then 990 μl of octanol was added. The experiment was done in duplicate. After two hours of shaking at 37° C. and keeping at room temperature for 30 minutes the two layers were separated. After separation, octanol layer was diluted further with MeOH and compound was quantified in both layers by UPLC (waters). The samples were analysed in triplicate.
Where: • ConcINITIAL=Concentration of compound in the initial aqueous solution (PBS) • ConcFINAL=Concentration of compound in final aqueous phase (PBS) • Vaq=Volume of aqueous (PBS) • Voct=Volume of octanol

HIV-1 BaL = test: TZM-bl antiviral assay, wild type HIV-1 Ba-L; type: cell-based; settings: Human immunodeficiency virus 1, BAL; TZM-bl cells, Ba-L wild type; read-out: Antiviral activity-wild type viruses EC50 TZM-bI Ba-L
Experimental: (§1) The JC53-BL cell line, also known as the TZM-bl cell line (NIH AIDS Research and Reference Reagent Program, Germantown, USA), was used for the evaluation of anti-HIV activity. TZM-bl cells were cultured in Dulbecco's […] (DMEM) (Lonza) containing 10% heat-inactivated FBS and 50 μg gentamycin/mL at 37° C. in a humidified 5% CO2, 95% air environment. Twice a week the cells were treated with 0.25% trypsin-1 mM EDTA (Lonza) for 10 minutes. The resulting cell suspension was washed with an equivalent amount of TZM-bl medium and subsequently seeded in a T75 culture flask (Greiner Bio-One, Germany) at 10^6 cells in 20 mL medium.
(§2) The antiviral activity of the newly designed compounds was measured by pre-incubating ten thousand TZM-bl cells (at 10^5 cells/mL in culture medium supplemented with 30 μg/mL DEAE dextran) in a 96-well plate for 30 minutes at 37° C., 5% CO2 in the presence or absence of serial dilutions of the respective compound. Subsequently, 200 TCID50 of HIV-1 BaL was added to each well and cultures were incubated for 48 hours before quantifying luciferase activity, using a TriStar LB941 luminometer (Berthold Technologies GmbH & Co. KG, Bad Wildbad, Germany). Each condition was evaluated in triplicate wells and in at least two independent experiments. The antiviral activity of the compound was expressed as the percentage of viral inhibition compared to the untreated controls and subsequently plotted against the compound concentration.
(§3) The target compounds are evaluated for their anti-HIV-1 activity and cytotoxicity. In a primary screen, the anti-HIV activity against the laboratory strain Ba-L and against a primary subtype C isolate was determined in the TZM-bl cell line. Cellular toxicity on TZM-bl cells was evaluated using WST-1. […] In addition, the activity against NNRTI-resistant viruses (V106A, Y181C, L100I+K103N, L100I+E138K+T369I and K101E+K103N+V108VI+V179M+Y181C+E138Q) was tested. Diarylpyrimidines (DAPY) TMC120, TMC125 and TMC278 were used as reference compounds.

HIV-1 Ba-L [2] = test: Antiviral activity in dendritic cells / CD4+ T lymphocytes (DC/T4), Ba-L; type: cell-based; settings: Human immunodeficiency virus 1, BAL; DC/T4, Ba-L wild type; read-out: Antiviral activity-wild type viruses EC50 DC/T4 Ba-L
VI829 L100I+E138K+T369I = test: Antiviral activity, NNRTI-resistant virus L100I+E138K+T369I; type: cell-based, HIV-1; settings: for FC (**): VI829, ** = L1001 + E138K + T3691
Experimental: (§4) The target compounds are evaluated for their anti-HIV-1 activity and cytotoxicity. In a primary screen, the anti-HIV activity against the laboratory strain Ba-L and against a primary subtype C isolate was determined in the TZM-bl cell line. Cellular toxicity on TZM-bl cells was evaluated using WST-1. Based on the primary screening results, the target compound was further evaluated for anti-HIV activity in different primary cells, including peripheral blood mononuclear cells, dendritic cells and CD4+ T lymphocytes. In addition, the activity against NNRTI-resistant viruses (V106A, Y181C, L100I+K103N, L100I+E138K+T369I and K101E+K103N+V108VI+V179M+Y181C+E138Q) was tested. Diarylpyrimidines (DAPY) TMC120, TMC125 and TMC278 were used as reference compounds.

VI829 = test: TZM-bl antiviral assay, wild type VI829 (primary subtype C isolate); type: cell-based, HIV-1; settings: Human immunodeficiency virus 1; TZM-bl cells, VI829 wild type; read-out: Antiviral activity-wild type viruses EC50 TZM-bI VI829
Experimental: as §1, §2, §3

VI829 Y181C = test: Antiviral activity, NNRTI-resistant virus Y181C; type: cell-based, HIV-1; settings: for EC50: Human immunodeficiency virus 1, read-out: Antiviral activity-NNRTI-resistant viruses EC50 VI829 Y181C; for FC (Y181C): VI829 Y181C
Experimental: as §3

VI829 L100I+K103N = test: Antiviral activity, NNRTI-resistant virus L100I+K103N; type: cell-based, HIV-1; settings: for EC50: Human immunodeficiency virus 1, read-out: Antiviral activity-NNRTI-resistant viruses EC50 VI829 L100I+K103N; for FC (L100I+K103N): VI829 L100I+K103N
Experimental: as §3

Ba-L V106A = test: Antiviral activity, NNRTI-resistant virus V106A; type: cell-based, HIV-1; settings: for FC (V106A): Ba-L V106A; for EC50: Human immunodeficiency virus 1, BAL, read-out: Antiviral activity-NNRTI-resistant viruses EC50 Ba-L V106A
Experimental: as §3

[3] = tested on: Ba-L K101E + K103N + V108VI + V179M + Y181C + E138Q; test: Antiviral activity, NNRTI-resistant virus K101E+K103N+V108VI+V179M+Y181C+E138Q; type: cell-based, HIV-1; settings: for FC (*): Ba-L, * = K101E + K103N + V108VI + V179M + Y181C + E138Q; for EC50: Human immunodeficiency virus 1, BAL, read-out: Antiviral activity-NNRTI-resistant viruses EC50 Ba-L *
Experimental: as §4

in vitro = type: cell-based; settings: human, Cytotoxicity CC50 TZM-bI
Text: (§5) The Water Soluble Tetrazolium-1 (WST-1) Cell Proliferation Assay is a colorimetric assay for the measurement of cell proliferation and viability. The assay is based on the cleavage of the tetrazolium salt WST-1 (4-[3-(4-iodophenyl)-2-(4-nitrophenyl)-2H-5-tetrazolio]-1,3-benzene disulfonate) to a formazan dye by a complex cellular mechanism. This bioreduction is largely dependent on the glycolytic production of NAD(P)H in viable cells. Therefore, the amount of formazan dye formed correlates directly to the number of viable cells in the culture, and can be quantified by measuring the absorbance at 450 nm in a multiwell plate reader. The greater the number of viable cells, the greater the amount of formazan dye produced following the addition of WST-1. Cytotoxicity of each compound was evaluated using this WST-1 viability assay, according to the manufacturer's instructions (Roche, Vilvoorde, Belgium).
(§6) Briefly, ten thousand TZM-bl cells were seeded in a 96-well plate and cultured for 2 days in the presence of a serial dilution of compound. After this 48 h exposure, Cell Proliferation Reagent, WST-1, was added and absorbance at 450 nm was quantified after 90 min using a microplate reader (BioRad, Tokio, Japan). Each compound was tested in three replicate wells and in at least two independent experiments.
as §3

HIV-1 Ba-L [4] = test: Antiviral activity in peripheral blood mononuclear cells (PBMC), Ba-L; type: cell-based; settings: Human immunodeficiency virus 1, BAL, Ba-L wild type, read-out: Antiviral activity-wild type viruses EC50 PBMC Ba-L
TZM-bl cells = test: in vitro; type: cell-based; settings: human, 48 h
Text: as §5, §6, §3

Cc1cc(/C=C/C#N)cc(C)c1Nc1nc(N)nc(Nc2ccc(C#N)cc2)n1 [T2, (E)-4-(4-amino-6-(4-(2-cyanovinyl)-2,6-dimethylphenylamino)-1,3,5-triazin-2-ylamino)benzonitrile]
logD at 2 h [1]: 3.8 | EC50 (HIV-1 BaL): 1.3 nM | EC50 (HIV-1 Ba-L [2]): 0.51 nM | FC (**) (VI829 L100I+E138K+T369I): 68 | EC50 (VI829): 1.3 nM | EC50 (VI829 Y181C): 2.6 nM | FC (Y181C) (VI829 Y181C): 2 | EC50 (VI829 L100I+K103N): 6.8 nM | FC (L100I+K103N) (VI829 L100I+K103N): 5.2 | FC (V106A) (Ba-L V106A): 1 | EC50 (Ba-L V106A): 1.9 nM | FC (*) [3]: 18 | EC50 [3]: 23 nM | CC50 at 48 h (in vitro): 24500 nM | EC50 (HIV-1 Ba-L [4]): 5.3 nM

Cc1cc(/C=C\C#N)cc(C)c1Nc1nc(N)nc(Nc2ccc(C#N)cc2)n1 [T3, (Z)-4-(4-amino-6-(4-(2-cyanovinyl)-2,6-dimethylphenylamino)-1,3,5-triazin-2-ylamino)benzonitrile]
EC50 (HIV-1 BaL): 1.1 nM | EC50 (HIV-1 Ba-L [2]): 0.31 nM | FC (**) (VI829 L100I+E138K+T369I): 1266 | EC50 (VI829): 1.1 nM | EC50 (VI829 Y181C): 12 nM | FC (Y181C) (VI829 Y181C): 11 | EC50 (VI829 L100I+K103N): 123 nM | FC (L100I+K103N) (VI829 L100I+K103N): 112 | FC (V106A) (Ba-L V106A): 5 | EC50 (Ba-L V106A): 5.2 nM | FC (*) [3]: 214 | EC50 [3]: 236 nM | CC50 at 48 h (in vitro): 30800 nM | EC50 (HIV-1 Ba-L [4]): 6.1 nM

Cc1cc(C=CC#N)cc(C)c1Nc1nc(Nc2ccc(C#N)cc2)nc(NC(C)C)n1 [T6, 4-((4-((4-(2-cyanovinyl)-2,6-dimethylphenyl)amino)-6-(isopropylamino)-1,3,5-triazin-2-yl)amino)benzonitrile]
EC50 (HIV-1 BaL): 5 nM | EC50 (HIV-1 Ba-L [2]): 1.4 nM | FC (**) (VI829 L100I+E138K+T369I): 225 | EC50 (VI829): 4.3 nM | EC50 (VI829 Y181C): 45 nM | FC (Y181C) (VI829 Y181C): 10 | EC50 (VI829 L100I+K103N): 184 nM | FC (L100I+K103N) (VI829 L100I+K103N): 43 | FC (V106A) (Ba-L V106A): 6 | EC50 (Ba-L V106A): 30 nM | FC (*) [3]: 85 | EC50 [3]: 424 nM | CC50 at 48 h (in vitro): 24700 nM | EC50 (HIV-1 Ba-L [4]): 14 nM

Cc1cc(C)c(Nc2ccnc(Nc3ccc(C#N)cc3)n2)c(C)c1 [TMC120, reference compound]
logD at 2 h [1]: > 5 | EC50 (HIV-1 BaL): 2 nM | EC50 (HIV-1 Ba-L [2]): 1.6 nM | activity against NNRTI-resistant virus L100I+E138K+T369I, in words (VI829 L100I+E138K+T369I; L100I+E138K+T369I): no activity | FC (**) (VI829 L100I+E138K+T369I): >500 | EC50 (VI829): 2 nM | EC50 (VI829 Y181C): 10.8 nM | FC (Y181C) (VI829 Y181C): 5 | EC50 (VI829 L100I+K103N): 674 nM | activity against Efavirenz resistant viruses (L100I+K103N), in words (VI829 L100I+K103N; L100I+K103N): high nanomolar activity | FC (L100I+K103N) (VI829 L100I+K103N): 337 | FC (V106A) (Ba-L V106A): 1 | EC50 (Ba-L V106A): 2.5 nM | FC (*) [3]: >500 | EC50 [3]: > 1000 nM | activity against NNRTI-resistant virus K101E+K103N+V108VI+V179M+Y181C+E138Q, in words ([3]; K101E+K103N+V108VI+V179M+Y181C+E138Q): no activity | CC50 (TZM-bl cells): < 5000 nM | CC50 at 48 h (in vitro): 2880 nM | EC50 (HIV-1 Ba-L [4]): 5.1 nM

Cc1cc(/C=C/C#N)cc(C)c1Nc1ccnc(Nc2ccc(C#N)cc2)n1 [TMC278, Rilpivirine, reference compound]
logD at 2 h [1]: 4 | EC50 (HIV-1 BaL): 0.72 nM | EC50 (HIV-1 Ba-L [2]): 1.6 nM | FC (**) (VI829 L100I+E138K+T369I): 130 | EC50 (VI829): 1 nM | EC50 (VI829 Y181C): 2.5 nM | FC (Y181C) (VI829 Y181C): 3 | EC50 (VI829 L100I+K103N): 3.6 nM | FC (L100I+K103N) (VI829 L100I+K103N): 4 | FC (V106A) (Ba-L V106A): 1 | EC50 (Ba-L V106A): 0.93 nM | FC (*) [3]: 38 | EC50 [3]: 27 nM | CC50 (TZM-bl cells): 7740 nM | CC50 at 48 h (in vitro): < 10000 nM | EC50 (HIV-1 Ba-L [4]): 5.2 nM

— patent US9650348B2, “Triazines with suitable spacers for treatment and/or prevention of HIV infections” (Universiteit Antwerpen, priority 2012, dated 2017)
